Test [1] deals with Pig umami receptor (T1R1/T1R3). Description: Screening assay for ligands: calcium influx via pig umami receptor in transfected CHO-K1 cells (Fluo-4 NW). The test is classed as cell-based. The following applies: for Absorbance Mean: CHO-K1 cells with pig taste receptors and mouse G alpha 15; for Index Relative to control: ratio of calcium influx to control (no treatment = 1.00); for stimulation of the pig umami receptor (signal, in words): CHO-K1 cell system, calcium signal; for response index: example test run, background (no treatment) = response ratio 1.0, concentration not given.

Test [2] has as its system weaned piglets. Put plainly: Double-choice preference test in drinking water, weaned piglets. The test is classed as in vivo, pigs (Landrace×Large White). The following applies: 0.5 M solution vs tap water; for % of preference Mean: two minutes, ad libitum conditions. The text has this:
This example tests preferences in drinking water for amino acids L-Glutamine and L-Lysine in weaned piglets maintained in ad libitum conditions.
A total number of 58 pigs (Landrace×Large White) of 18±2 Kg BW, half males and half females, were used in this study. The test pigs were selected according to their level of stress and behaviour in front of social isolation, reaction to novelty and training to perform a choice between two containers that had the test solution (sugar at 0.5M) and control solution (tap water) after an habituation period of four days. During the habituation period, individual pigs were maintained in contiguous pens in front of two unfamiliar red plastic containers (double-choice test) during 10 minutes every day. On the fourth day, animals were trained for performing the test. […] Selected test animals were maintained in groups of four and three pen mates under ad libitum conditions, feed and water, with a balanced diet according to their requirements. During the experimental sessions, pigs were exposed simultaneously to two different solutions (approximately 250 g in each container) for a time period of two minutes. One of the solutions was tap water (control) and the other contained a 0.5M solution of one of the amino acids tested (test). Volume depletion of both test and control solutions were recorded and the % preference related to the test solution calculated as follows: […]

“And” between values parts separate entries of the source, which are not always exact repeats. Equal values may be shown once.

As for `N[C@@H](CC(=O)O)C(=O)O` [Aspartate], in test [1] (treatment 1 mM), the “Absorbance Mean” value is given as 8619 and the “Index Relative to control” value worked out at 1.03. Moreover, in test [1] (treatment 10 mM), the “Absorbance Mean” value stood at 10352 and the “Index Relative to control” value is 1.24^1.
With `NC(=O)CC[C@H](N)C(=O)O` [Glutamine, L-Glutamine], the “stimulation of the pig umami receptor (signal, in words)” value (shortened to “stimulation of the pig umami receptor”) in test [1] (listed as L-Glutamine) is “high degree of stimulation”; in test [1] (listed as glutamine) it was “the strongest and the most significant signal”. In addition, the “Absorbance Mean” value in test [1] (treatment 1 mM) came to 10901; in test [1] (treatment 10 mM) it was 10038. In addition, the “Index Relative to control” value was 1.31^1 in test [1] (treatment 1 mM) and 1.20^1 in test [1] (treatment 10 mM). In addition, the “% of preference Mean” value in test [2] was 59.56% and 79.28%. The “preferences over tap water” value in test [2] (1st study) came to 60%; in test [2] (2nd study) it was 79%.
As to `NCC(=O)O` [Glycine], the “Absorbance Mean” value in test [1] (treatment 1 mM) was 8874; in test [1] (treatment 5 mM) it was 9543. For the same compound, the “Index Relative to control” value in test [1] (treatment 1 mM) is recorded as 1.06; in test [1] (treatment 5 mM), 1.14.
Turning to `O=P(O)(O)O[C@@H]1[C@@H](O)[C@H](O)[C@@H](O)[C@H](O)[C@@H]1O` [IMP, inositol monophosphate], in test [1] (treatment 2.5 mM), the “Absorbance Mean” value came to 9161 and the “Index Relative to control” value was 1.10.
Consider `NC(CCP(=O)(O)O)C(=O)O` [L-AP4], for which the “Absorbance Mean” value came out at 8907 in test [1] (treatment 5 mM) and 9316 in test [1] (treatment 10 mM). The “Index Relative to control” value in test [1] (treatment 5 mM) turned out to be 1.07; in test [1] (treatment 10 mM) it was 1.12.
Regarding `NCCCC[C@H](N)C(=O)O` [L-Lysine], in test [1], the “stimulation of the pig umami receptor” value is reported as “little or no capacity”. In test [2], the “preference (in words)” value is “negative preference” and the “% of preference Mean” value was 37.66%. Besides, the “preferences over tap water” value in test [2] (study not given) was “about 38%”.
`CC(C)C[C@H](N)C(=O)O` [Leucine]: the “stimulation of the pig umami receptor” value in test [1] was “the strongest and the most significant signal”. In addition, in test [1] (treatment 10 mM), the “Absorbance Mean” value is 9163 and the “Index Relative to control” value was 1.10. Further, in test [1] (treatment 30 mM), the “Absorbance Mean” value was found to be 10161 and the “Index Relative to control” value is 1.22^1.
Regarding `Cl.NCCCC[C@H](N)C(=O)O` [Lysine HCl], in test [1] (treatment 10 mM), the “Absorbance Mean” value turned out to be 9319 and the “Index Relative to control” value is 1.12. In test [1] (treatment 30 mM), the “Absorbance Mean” value was 9675 and the “Index Relative to control” value was found to be 1.16.
Turning to `N[C@@H](CO)C(=O)O` [Serine], in test [1] (treatment 5 mM), the “Absorbance Mean” value worked out at 8372 and the “Index Relative to control” value was found to be 1.00. Besides, in test [1] (treatment 10 mM), the “Absorbance Mean” value turned out to be 9697 and the “Index Relative to control” value is on record as 1.16.
As to `C[C@H](N)C(=O)O` [alanine], the response index in test [1] is given as 3.47.
`N[C@@H](CS)C(=O)O` [cysteine]: in test [1], the response index was found to be 0.83.
Turning to `C/C=C(/C)C(=O)O[C@H]1C(C)=C2[C@H]([C@@H]1OC(=O)CCCCCCC)[C@@](C)(OC(C)=O)C[C@H](OC(=O)CCC)[C@@]1(O)[C@H]2OC(=O)[C@@]1(C)O` [thapsigargin, reference compound], in test [1], the response index is given as 17.89.

The record behind these values is patent US20110082220A1, “PORCINE UMAMI TASTE RECEPTORS AND USES THEREFOR” (The Regents of The University of California, priority 2007, published 2011).
